Experimental findings from ChEMBL document CHEMBL5505993, “Identification of a ferritinophagy inducer via sinomenine modification for the treatment of colorectal cancer” (Eur J Med Chem, 2024) are described below.

Each structure is given as a SMILES string.

One may read the IC50 as the concentration that gives 50% inhibition.

In data set [1] the test system is HCT-116. Description: Cytotoxicity against human HCT-116 cells assessed as inhibition of cell growth incubated for 48 hrs by CCK-8 assay. The data set is classed as functional, cell-based. Particulars: HCT-116, 48 h. For orientation: Formazan colour is commonly taken as a measure of viable cells.
Data set [2] relates to HT-29. Description: Cytotoxicity against human HT-29 cells assessed as inhibition of cell growth incubated for 48 hrs by CCK-8 assay. Format: functional, cell-based. Particulars: HT-29, 48 h.
Data set [3] can be described thus: Cytotoxicity against human NCM460 cells assessed as inhibition of cell growth incubated for 48 hrs by CCK-8 assay. Format: toxicity, cell-based.

Consider `C=C(Cl)C(=O)NCCC(=O)Oc1c(OC)ccc2c1[C@@]13CCN(C)[C@@H](C2)[C@H]1C=C(OC)C(=O)C3`, for which the IC50 in data set [1] amounted to 4.76 µM; in data set [2], 9.45 µM. The IC50 at 48 h in data set [3] is 34.5 µM.
For `C=C(Cl)C(=O)NCCCCCCCC(=O)Oc1c(OC)ccc2c1[C@@]13CCN(C)[C@@H](C2)[C@H]1C=C(OC)C(=O)C3` the same measures were 19.6 µM, 17.8 µM and > 50 µM.
On the same counts, the results for `COCC(=O)Oc1c(OC)ccc2c1[C@@]13CCN(C)[C@@H](C2)[C@H]1C=C(OC)C(=O)C3` are > 50 µM, > 50 µM and > 50 µM.
`C=CC(=O)NCCCCCCCCCCCC(=O)Oc1c(OC)ccc2c1[C@@]13CCN(C)[C@@H](C2)[C@H]1C=C(OC)C(=O)C3`: the IC50 in data set [1] was determined as 20.2 µM; in data set [2], 7.14 µM. The IC50 at 48 h in data set [3] was 33.2 µM.
In the case of `COC1=C[C@@H]2[C@@H]3Cc4ccc(OC)c(OC(=O)CCNC(=O)/C=C/C(F)(F)F)c4[C@]2(CCN3C)CC1=O`, the concentration for half-maximal inhibition (IC50) in data set [1] and in data set [2] was > 50 µM throughout. For the same compound, the IC50 at 48 h in data set [3] is > 50 µM.
Take `COC1=C[C@@H]2[C@@H]3Cc4ccc(OC)c(OC(=O)C(C)C)c4[C@]2(CCN3C)CC1=O`: the IC50 in data set [1] and in data set [2] was > 50 µM each time. The IC50 at 48 h in data set [3] is > 50 µM.
As to `C/C=C/C(=O)Oc1c(OC)ccc2c1[C@@]13CCN(C)[C@@H](C2)[C@H]1C=C(OC)C(=O)C3`, the IC50 in data set [1] and in data set [2] was > 50 µM in each case. Besides, in data set [3], the half-maximal inhibitory concentration (IC50) at 48 h is > 50 µM.
Turning to `C=CC(=O)NCCCCCCCC(=O)Oc1c(OC)ccc2c1[C@@]13CCN(C)[C@@H](C2)[C@H]1C=C(OC)C(=O)C3`, the 50% inhibitory concentration (IC50) in data set [1] and in data set [2] was > 50 µM each time. Further, the IC50 at 48 h in data set [3] was > 50 µM.
In the case of `COC1=C[C@@H]2[C@@H]3Cc4ccc(OC)c(OC(=O)CCl)c4[C@]2(CCN3C)CC1=O`, the values for the concentration for half-maximal inhibition (IC50) in data set [1] and in data set [2] were 33.3 µM and > 50 µM, respectively. The IC50 at 48 h in data set [3] was > 50 µM.
As for `C=C(Cl)C(=O)Oc1c(OC)ccc2c1[C@@]13CCN(C)[C@@H](C2)[C@H]1C=C(OC)C(=O)C3`, the IC50 came to 12.9 µM in data set [1] and 8.66 µM in data set [2]. Also, the IC50 at 48 h in data set [3] came out at 35.2 µM.
As for `CCCCCCC(=O)Oc1c(OC)ccc2c1[C@@]13CCN(C)[C@@H](C2)[C@H]1C=C(OC)C(=O)C3`, the IC50 in data set [1] is > 50 µM; in data set [2], 31.9 µM. In addition, the IC50 at 48 h in data set [3] is > 50 µM.
For the compound `C=CCCC(=O)Oc1c(OC)ccc2c1[C@@]13CCN(C)[C@@H](C2)[C@H]1C=C(OC)C(=O)C3`, the IC50 in data set [1] and in data set [2] was > 50 µM throughout. Besides, the IC50 at 48 h in data set [3] is > 50 µM.
Take `COC1=C[C@@H]2[C@@H]3Cc4ccc(OC)c(OC(=O)c5ccc(OC)cc5)c4[C@]2(CCN3C)CC1=O`: the IC50 in data set [1] and in data set [2] was > 50 µM each time. Moreover, the concentration for half-maximal inhibition (IC50) at 48 h in data set [3] is > 50 µM.
Consider `COC1=C[C@@H]2[C@@H]3Cc4ccc(OC)c(OC(=O)c5ccccc5)c4[C@]2(CCN3C)CC1=O`, for which the IC50 in data set [1] and in data set [2] was > 50 µM each time. For the same compound, the IC50 at 48 h in data set [3] was > 50 µM.
Turning to `CCCCCCCCCCCC(=O)Oc1c(OC)ccc2c1[C@@]13CCN(C)[C@@H](C2)[C@H]1C=C(OC)C(=O)C3`, the half-maximal inhibitory concentration (IC50) in data set [1] amounted to 5.69 µM; in data set [2], 4 µM. Moreover, in data set [3], the IC50 at 48 h is 9.85 µM.
For `CCCC(=O)Oc1c(OC)ccc2c1[C@@]13CCN(C)[C@@H](C2)[C@H]1C=C(OC)C(=O)C3` the same measures were > 50 µM, > 50 µM and > 50 µM.
On the same counts, the results for `COC1=C[C@@H]2[C@@H]3Cc4ccc(OC)c(OC(C)=O)c4[C@]2(CCN3C)CC1=O` are > 50 µM, > 50 µM and > 50 µM.
For `C=CC(=O)NCCC(=O)Oc1c(OC)ccc2c1[C@@]13CCN(C)[C@@H](C2)[C@H]1C=C(OC)C(=O)C3` the same measures were > 50 µM, > 50 µM and > 50 µM.
For the compound `COC1=C[C@@H]2[C@@H]3Cc4ccc(OC)c(O)c4[C@]2(CCN3C)CC1=O` [SINOMENINE], the IC50 in data set [1] and in data set [2] was > 50 µM throughout. Moreover, the IC50 at 48 h in data set [3] is > 50 µM.
Consider `C=C(C)C(=O)Oc1c(OC)ccc2c1[C@@]13CCN(C)[C@@H](C2)[C@H]1C=C(OC)C(=O)C3`, for which the figures for the IC50 in data set [1] and in data set [2] were 61.4 µM and > 50 µM, respectively. In data set [3], the concentration for half-maximal inhibition (IC50) at 48 h is > 50 µM.
As to `COC1=C[C@@H]2[C@@H]3Cc4ccc(OC)c(OC(=O)CCCCCCCCCCCNC(=O)/C=C/C(F)(F)F)c4[C@]2(CCN3C)CC1=O`, the IC50 turned out to be 7.84 µM in data set [1] and 8.71 µM in data set [2]. In addition, the IC50 at 48 h in data set [3] was determined as 22.9 µM.
With `COC1=C[C@@H]2[C@@H]3Cc4ccc(OC)c(OC(=O)c5ccc(Cl)cc5)c4[C@]2(CCN3C)CC1=O`, the results for the IC50 in data set [1] and in data set [2] were > 50 µM and 25.1 µM, respectively. In addition, the IC50 at 48 h in data set [3] was > 50 µM.
Take `C=CC(=O)Oc1c(OC)ccc2c1[C@@]13CCN(C)[C@@H](C2)[C@H]1C=C(OC)C(=O)C3`: the half-maximal inhibitory concentration (IC50) in data set [1] was determined as 7.04 µM; in data set [2], 9.12 µM. Moreover, the 50% inhibitory concentration (IC50) at 48 h in data set [3] is 32.5 µM.
For `CCO/C=C/C(=O)Oc1c(OC)ccc2c1[C@@]13CCN(C)[C@@H](C2)[C@H]1C=C(OC)C(=O)C3` the same measures were > 50 µM, > 50 µM and > 50 µM.
With `COC1=C[C@@H]2[C@@H]3Cc4ccc(OC)c(OC(=O)/C=C/C(F)(F)F)c4[C@]2(CCN3C)CC1=O`, the IC50 in data set [1] amounted to 6.01 µM; in data set [2], 5.99 µM. Also, the IC50 at 48 h in data set [3] was 16 µM.
On the same counts, the results for `COC1=C[C@@H]2[C@@H]3Cc4ccc(OC)c(OC(=O)CCCCCCCNC(=O)/C=C/C(F)(F)F)c4[C@]2(CCN3C)CC1=O` are > 50 µM, > 50 µM and > 50 µM.
As for `COC1=C[C@@H]2[C@@H]3Cc4ccc(OC)c(OC(=O)/C=C/c5ccccc5)c4[C@]2(CCN3C)CC1=O`, the IC50 in data set [1] and in data set [2] was > 50 µM in each case. For the same compound, in data set [3], the IC50 at 48 h is > 50 µM.
As to `COC1=C[C@@H]2[C@@H]3Cc4ccc(OC)c(OC(=O)C5CC5)c4[C@]2(CCN3C)CC1=O`, the IC50 in data set [1] and in data set [2] was > 50 µM in each case. Also, the IC50 at 48 h in data set [3] was > 50 µM.
